From patent US20220324912A1, “THERAPEUTIC PEPTIDES” (COHBAR, INC., priority 2019, published 2022)
Residues, ends and D or L forms follow the SMILES beside them.

Key:
[1] = test system: Caspase 3/7 in MDA-MB-231 cells; test: Caspase 3/7 Activity in MDA-MB-231 Cells (Caspase-Glo 3/7); assay type: cell-based, human; conditions: for Caspase 3/7 activity, Percent of Control Activity: peptides 10 μM, 18 hours, relative to DMSO control
Procedure: The effect of the peptides on cell death/survival can be assessed using a caspase-3 assay. Peptides were dissolved with DMSO at 10 mM stock. […] Staurosporine (Selleckchem) was dissolved with DMSO at 1 mM stock. Caspase-Glo 3/7 Assay Reagent was purchased from Promega (Madison, Wis.). MDA-MB-231 human breast cancer cell line was purchased from American Type Culture Collection (Manassas, Va.). MDA-MB-231 cells were grown in DMEM Medium supplemented with 10% FBS. 100 μg/ml penicillin and 100 μg/ml streptomycin were added to the culture medium. Cultures were maintained at 37° C. in a humidified atmosphere of 5% CO2 and 95% air. MDA-MB-231 cells were incubated with test peptides in duplicate at 10 μM at 37° C. in a humidified atmosphere of 5% CO2 and 95% air for 18 hours. 25 μl of Caspase-Glo 3/7 Assay Reagent was added to each well and incubated at 37° C., 5% CO2 for 1 hour. Luminescence for each sample well on the plate was measured by Envision 2104 Multilabel Reader (PerkinElmer, Santa Clara, Calif.). Activity was calculated relative to DMSO control.

MCF-7 cells = conditions: human, 72 hours, 10 μM
Procedure: Peptides and reference compound staurosporine (Selleckchem) were dissolved with DMSO at 10 mM stock. CellTiter 96® AQueous One Solution Reagent (MTS assay reagent) was purchased from Promega (Madison, Wis.). MCF-7 human breast cancer cell line was purchased from American Type Culture Collection (Manassas, Va.). MCF-7 cells were grown in EMEM Medium supplemented with 10% FBS and 0.01 mg/ml human recombinant insulin. 100 μg/ml penicillin and 100 μg/ml streptomycin were added to the culture medium. Cells were incubated with test peptides at 10 μM at 37° C. in a humidified atmosphere of 5% CO2 and 95% air for 72 hours. 5 μl of CellTiter 96® AQueous One Solution Reagent (MTS assay reagent) was added to each well and incubated at 37° C., 5% CO2 for 5 hours. Absorbance at 492 nm was recorded by Envision 2104 Multilabel Reader. Treatment with DMSO alone was used as the cell viability activity control.

MDA-MB-231 cells = test: Cell viability, MTS Assay in MDA-MB-231 Cells; assay type: cell-based; conditions: human, 72 hours
Procedure: Test compounds and reference compound staurosporine (Selleckchem) were all dissolved with DMSO at 10 mM stock. […] Activity was calculated relative to DMSO control. […] Cell viability was 3% of the DMSO control value for Staurosporine (10 uM).

3T3-L1 adipocytes = test: Free Fatty Acid Levels in 3T3-L1 Adipocytes (Example 4, 25 μM); assay type: cell-based, mouse; conditions: peptides 25 μM, 20-22 hours then 3 hours with isoproterenol 1 nM, 3T3-L1 adipocytes
Procedure: Following 12-15 days' differentiation, test peptides were added to a final concentration of 25 μM and incubated for 20-22 hours in Adipocyte Maintenance Medium. After 20-22 hours, isoproterenol (1 nM) was added to all wells except untreated controls and test peptides were replenished. Cells were incubated for a further 3 hours in Assay Buffer (Zen-Bio). Free fatty acid concentrations in the media were determined using a Free Fatty Acid Assay Kit (Zen-Bio) according to the manufacturer's instructions using a plate reader (540 nm). Absorbance values were corrected for untreated background and expressed relative to isoproterenol treated cells. Treatment with isoproterenol (1 nM) alone was used as the free fatty acid level stimulatory control. The relative standard deviation of the isoproterenol control was <10%. […] Free fatty acid levels for insulin (100 nM) treatment were <5% of the isoproterenol control value.

[2] = Stability in Mouse Plasma; assay type: in vitro ADME; conditions: pooled mouse plasma, 37° C., peptides 100 DM
Procedure: Peptides (100 DM) were incubated in pooled mouse plasma at 37° C. and samples were removed and immediately analyzed for the concentration of intact peptide by LC/MS/MS over the course of 3 hours. The percent of peptide remaining in plasma at each time point was calculated relative to the initial peak area (Table 9).

| SMILES | Caspase 3/7 activity, Percent of Control Activity [1] [%] | MTS cell viability, Percent of Control Activity (MCF-7 cells) [%] | MTS cell viability, Percent of Control Activity (MDA-MB-231 cells) [%] | Free fatty acid levels, Percent of Control Value (percent isoproterenol control) (3T3-L1 adipocytes) [%] | Caspase activity, % of background-corrected DMSO control value ([1]; staurosporine 0.05 nM) [%] | % Remaining at 0 min ([2]; 0 min) [%] | remaining at 0.25 h, 100 DM ([2]; 15 min) [%] | remaining at 0.5 h, 100 DM ([2]; 30 min) [%] | remaining at 1 h, 100 DM ([2]; 60 min) [%] | remaining at 2 h, 100 DM ([2]; 120 min) [%] | remaining at 3 h, 100 DM ([2]; 180 min) [%] |
| --- | --- | --- | --- | --- | --- | --- | --- | --- | --- | --- | --- |
| CSCC[C@H](N)C(=O)N[C@H](C(=O)N[C@@H](Cc1ccccc1)C(=O)N[C@@H](CCC(N)=O)C(=O)N[C@@H](CCCCN)C(=O)N[C@H](C(=O)N[C@@H](Cc1c[nH]cn1)C(=O)N[C@@H](CC(N)=O)C(=O)N[C@@H](CC(C)C)C(=O)N[C@@H](CC(N)=O)C(=O)N[C@@H](CCC(N)=O)C(=O)N[C@@H](Cc1c[nH]cn1)C(=O)N[C@@H](CC(N)=O)C(=O)N[C@@H](Cc1c[nH]cn1)C(=O)N1CCC[C@H]1C(=O)N[C@@H](CCC(N)=O)C(=O)N1CCC[C@H]1C(=O)N[C@@H](CC(N)=O)C(=O)N[C@@H](Cc1ccc(O)cc1)C(=O)O)[C@@H](C)O)[C@@H](C)O [compound 20] (H-MTFQKTHNLNQHNHPQPNY-OH; N-terminus and C-terminus assumed) | 58 | 63 | 85 | 71 | – | – | – | – | – | – | – |
| CC[C@H](C)[C@H](NC(=O)[C@H](C)NC(=O)[C@H](CCCNC(=N)N)NC(=O)[C@H](C)NC(=O)[C@@H](NC(=O)[C@H](CCCNC(=N)N)NC(=O)[C@H](CCCNC(=N)N)NC(=O)[C@@H](NC(=O)[C@H](C)NC(=O)[C@H](CC(C)C)NC(=O)[C@@H](N)CCSC)C(C)C)[C@@H](C)O)C(=O)NCC(=O)O [compound 2] (H-MLAVRRTARAIG-OH; N-terminus and C-terminus assumed) | 71 | 39 | 78 | 76 | – | – | – | – | – | – | – |
| CC[C@H](C)[C@H](NC(=O)CNC(=O)[C@H](CCC(=O)O)NC(=O)[C@H](CCCNC(=N)N)NC(=O)CNC(=O)[C@H](Cc1c[nH]c2ccccc12)NC(=O)[C@@H]1CCCN1C(=O)[C@H](Cc1c[nH]cn1)NC(=O)CNC(=O)CNC(=O)[C@H](CCC(=O)O)NC(=O)[C@H](CO)NC(=O)[C@H](CC(C)C)NC(=O)[C@@H]1CCCN1C(=O)CNC(=O)[C@H](CCCCN)NC(=O)[C@@H](NC(=O)[C@@H](NC(=O)[C@@H](N)CCSC)C(C)C)C(C)C)C(=O)O [compound 25] (H-MVVKGPLSEGGHPWGREGI-OH; N-terminus and C-terminus assumed) | 46 | 40 | 76 | 61 | – | – | – | – | – | – | – |
| CN[C@@H]1C[C@H]2O[C@@](C)([C@@H]1OC)n1c3ccccc3c3c4c(c5c6ccccc6n2c5c31)C(=O)NC4 [staurosporine, reference compound] | – | – | – | – | 130 | – | – | – | – | – | – |
| CC[C@H](C)[C@H](NC(=O)[C@H](C)NC(=O)[C@H](Cc1c[nH]c2ccccc12)NC(=O)[C@@H](N)CCSC)C(=O)N[C@@H](CC(=O)O)C(=O)N[C@@H](CCC(=O)O)C(=O)N[C@@H](CCCCN)C(=O)N[C@@H](C)C(=O)N[C@H](C(=O)N[C@@H](CCC(=O)O)C(=O)N[C@@H](C)C(=O)N[C@@H](CO)C(=O)NCC(=O)N[C@@H](CCC(=O)O)C(=O)O)C(C)C [compound 30] (H-MWAIDEKAVEASGE-OH; N-terminus and C-terminus assumed) | 50 | 61 | 76 | 85 | – | – | – | – | – | – | – |
| CC[C@H](C)[C@H](NC(=O)[C@H](C)NC(=O)[C@H](CO)NC(=O)CNC(=O)[C@@H]1CCCN1C(=O)[C@H](CC(C)C)NC(=O)[C@H](CCCNC(=N)N)NC(=O)[C@@H](N)CCSC)C(=O)N[C@@H](CC(C)C)C(=O)N[C@H](C(=O)N[C@@H](CC(N)=O)C(=O)N1CCC[C@H]1C(=O)N[C@H](C(=O)N[C@@H](CC(C)C)C(=O)NCC(=O)N[C@@H](Cc1c[nH]c2ccccc12)C(=O)N[C@H](C(=O)N[C@@H](Cc1c[nH]c2ccccc12)C(=O)N[C@H](C(=O)O)C(C)C)C(C)C)C(C)C)[C@@H](C)O [compound 7] (H-MRLPGSAILTNPVLGWVWV-OH) | – | 64 | 88 | – | – | 100 | 70.9 | 68.2 | 52.6 | 31.6 | 18.1 |
